Data published in article PMC6430684 (Cell chemical biology, 2019).

Molecular target: HSP90α (Homo sapiens, UniProt P07900)
Test: competitive fluorescence polarization with geldanamycin-FITC
Format: binding

Compound: O=C1C=C(Nc2ccc3cnccc3c2)c2ccccc2C1=O [YZ129, 4-(isoquinolin-6-ylamino)naphthalene-1,2-dione]
- IC50: 0.0295 µM
